target: ALK2 (Homo sapiens (Human), UniProt Q04771); assay: ALK2 inhibition, LanthaScreen Eu Kinase Binding Assay (ThermoFisher Scientific / Life Technologies); conditions: read-out: Measured Ki (IC50) Value for Compounds: IC50
Description: Biochemical assays to measure the inhibitory effects of the compounds were performed by ThermoFisher Scientific (Life Technologies). ALK2 inhibition was tested using LanthaScreen™ Eu Kinase Binding Assay screening protocol.

Chain of ALK2 (Q04771 21-509): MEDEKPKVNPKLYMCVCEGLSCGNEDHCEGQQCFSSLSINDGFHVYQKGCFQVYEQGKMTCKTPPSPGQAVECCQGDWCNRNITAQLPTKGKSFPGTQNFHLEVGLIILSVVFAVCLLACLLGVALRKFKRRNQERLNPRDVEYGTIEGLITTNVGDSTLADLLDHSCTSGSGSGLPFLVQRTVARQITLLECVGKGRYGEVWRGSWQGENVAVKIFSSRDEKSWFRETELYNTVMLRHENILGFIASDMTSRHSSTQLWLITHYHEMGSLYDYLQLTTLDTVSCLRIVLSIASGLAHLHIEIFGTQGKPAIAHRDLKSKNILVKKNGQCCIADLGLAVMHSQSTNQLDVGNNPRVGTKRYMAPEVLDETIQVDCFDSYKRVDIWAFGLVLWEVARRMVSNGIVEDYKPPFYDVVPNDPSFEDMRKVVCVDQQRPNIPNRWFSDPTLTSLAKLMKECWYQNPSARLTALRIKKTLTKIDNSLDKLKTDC

| Compound | IC50 [nM] |
| --- | --- |
| COc1cc(-n2cnc(Nc3nc(N4CCC[C@H]4CO)c4ccccc4n3)c2)cc(OC)c1OC [Compound 115b, (S)-(1-(2-((1-(3,4,5-trimethoxyphenyl)-1H-imidazol-4-yl)amino)quinazolin-4-yl)pyrrolidin-2-yl)methanol] | < 100 |
| N#Cc1ccc(-n2cnc(Nc3nc(N4CCC[C@H]4CO)nn4cccc34)c2)cc1 [Compound 116c, (S)-4-(4-((2-(2-(hydroxymethyl)pyrrolidin-1-yl)pyrrolo[2,1-f][1,2,4]triazin-4-yl)amino)-1H-imidazol-1-yl)benzonitrile] | 100 to 1000 |
| COc1cc(-n2cnc(Nc3nc(N4CCC[C@H]4C(N)=O)nn4c(CN5CCCCC5)ccc34)c2)cc(OC)c1OC [Compound 117a, (S)-1-(7-(piperidin-1-ylmethyl)-4-((1-(3,4,5-trimethoxyphenyl)-1H-imidazol-4-yl)amino)pyrrolo[2,1-f][1,2,4]triazin-2-yl)pyrrolidine-2-carboxamide] | < 100 |
| COc1cc(-n2cnc(Nc3nc(N4CCC[C@H]4C(N)=O)nn4c(CN5CCC[C@H]5C(N)=O)ccc34)c2)cc(OC)c1OC [Compound 118b, (S)-1-((2-((S)-2-carbamoylpyrrolidin-1-yl)-4-((1-(3,4,5-trimethoxyphenyl)-1H-imidazol-4-yl)amino)pyrrolo[2,1-f][1,2,4]triazin-7-yl)methyl)pyrrolidine-2-carboxamide] | < 100 |
| N#Cc1cccc(-n2cnc(Nc3nc(N4CCC[C@H]4CO)nn4cccc34)c2)c1 [Compound 119c, (S)-3-(4-((2-(2-(hydroxymethyl)pyrrolidin-1-yl)pyrrolo[2,1-f][1,2,4]triazin-4-yl)amino)-1H-imidazol-1-yl)benzonitrile] | < 100 |
| COc1cc(-n2cnc(Nc3nc(N4CCC[C@H]4CO)nn4c(CNCC5CC5)ccc34)c2)cc(OC)c1OC [Compound 120a, (S)-(1-(7-(((cyclopropylmethyl)amino)methyl)-4-((1-(3,4,5-trimethoxyphenyl)-1H-imidazol-4-yl)amino)pyrrolo[2,1-f][1,2,4]triazin-2-yl)pyrrolidin-2-yl)methanol] | < 100 |
| COc1cc(-n2cnc(Nc3nc(N4CCC[C@H]4CO)nn4c(CN5CCN(C(=O)OC(C)(C)C)CC5)ccc34)c2)cc(OC)c1OC [Compound 121b, (S)-tert-butyl 4-((2-(2-(hydroxymethyl)pyrrolidin-1-yl)-4-((1-(3,4,5-trimethoxyphenyl)-1H-imidazol-4-yl)amino)pyrrolo[2,1-f][1,2,4]triazin-7-yl)methyl)piperazine-1-carboxylate] | < 100 |
| COc1cc(-n2cnc(Nc3nc(N4CCC[C@H]4CO)nn4c(CN5CCNCC5)ccc34)c2)cc(OC)c1OC [Compound 122a, (S)-(1-(7-(piperazin-1-ylmethyl)-4-((1-(3,4,5-trimethoxyphenyl)-1H-imidazol-4-yl)amino)pyrrolo[2,1-f][1,2,4]triazin-2-yl)pyrrolidin-2-yl)methanol] | < 100 |
| CC(=O)c1cc(-n2cnc(Nc3nc(N4CCC[C@H]4CO)nn4cccc34)c2)ccc1O [Compound 123c, (S)-1-(2-hydroxy-5-(4-((2-(2-(hydroxymethyl)pyrrolidin-1-yl)pyrrolo[2,1-f][1,2,4]triazin-4-yl)amino)-1H-imidazol-1-yl)phenyl)ethanone] | < 100 |
| COc1cc(C(N)=O)cc(-n2cnc(Nc3nc(N4CCC[C@H]4CO)nn4cccc34)c2)c1 [Compound 125c, (S)-3-(4-((2-(2-(hydroxymethyl)pyrrolidin-1-yl)pyrrolo[2,1-f][1,2,4]triazin-4-yl)amino)-1H-imidazol-1-yl)-5-methoxybenzamide] | < 100 |
| COc1cc(-n2cnc(Nc3nc(N4CCC[C@H]4C(N)=O)nn4c(C(=O)N5CCCCC5)ccc34)c2)cc(OC)c1OC [Compound 126c, (S)-1-(7-(piperidine-1-carbonyl)-4-((1-(3,4,5-trimethoxyphenyl)-1H-imidazol-4-yl)amino)pyrrolo[2,1-f][1,2,4]triazin-2-yl)pyrrolidine-2-carboxamide] | < 100 |
| N#Cc1cc(O)cc(-n2cnc(Nc3nc(N4CCC[C@H]4CO)nn4cccc34)c2)c1 [Compound 127b, (S)-3-hydroxy-5-(4-((2-(2-(hydroxymethyl)pyrrolidin-1-yl)pyrrolo[2,1-f][1,2,4]triazin-4-yl)amino)-1H-imidazol-1-yl)benzonitrile] | < 100 |
| OC[C@@H]1CCCN1c1nc(Nc2cn(-c3ccc(F)c(F)c3)cn2)c2cccn2n1 [Compound 128c, (S)-(1-(4-((1-(3,4-difluorophenyl)-1H-imidazol-4-yl)amino)pyrrolo[2,1-f][1,2,4]triazin-2-yl)pyrrolidin-2-yl)methanol] | < 100 |
| COc1cc(-n2cnc(Nc3nc(N4CCC[C@H]4CO)nn4c(CNC(C)C)ccc34)c2)cc(OC)c1OC [Compound 129b, (S)-(1-(7-((isopropylamino)methyl)-4-((1-(3,4,5-trimethoxyphenyl)-1H-imidazol-4-yl)amino)pyrrolo[2,1-f][1,2,4]triazin-2-yl)pyrrolidin-2-yl)methanol] | < 100 |
| COc1cc(-n2cnc(Nc3nc(N4CCC[C@H]4C(N)=O)nc4ccccc34)c2)cc(OC)c1OC [Compound 130a, (S)-1-(4-((1-(3,4,5-trimethoxyphenyl)-1H-imidazol-4-yl)amino)quinazolin-2-yl)pyrrolidine-2-carboxamide] | < 100 |
| COc1cc(OC)cc(-n2cnc(Nc3nc(N4CCC[C@H]4C(N)=O)nn4cccc34)c2)c1 [Compound 131a, (S)-1-(4-((1-(3,5-dimethoxyphenyl)-1H-imidazol-4-yl)amino)pyrrolo[2,1-f][1,2,4]triazin-2-yl)pyrrolidine-2-carboxamide] | < 100 |
| COc1cc(-n2cnc(Nc3nc(N4CCC[C@H]4C(N)=O)c4ccsc4n3)c2)cc(OC)c1OC [Compound 132b, (S)-1-(2-((1-(3,4,5-trimethoxyphenyl)-1H-imidazol-4-yl)amino)thieno[2,3-d]pyrimidin-4-yl)pyrrolidine-2-carboxamide] | < 100 |
| COc1cc(-n2cnc(Nc3nc(N4CCC[C@H]4CO)c4ccsc4n3)c2)cc(OC)c1OC [Compound 133b, (S)-(1-(2-((1-(3,4,5-trimethoxyphenyl)-1H-imidazol-4-yl)amino)thieno[2,3-d]pyrimidin-4-yl)pyrrolidin-2-yl)methanol] | < 100 |
| COc1cc(-n2cnc(Nc3nc(-c4cccc(CO)c4)nn4cccc34)c2)cc(OC)c1OC [Compound 134a, (3-(4-((1-(3,4,5-trimethoxyphenyl)-1H-imidazol-4-yl)amino)pyrrolo[2,1-f][1,2,4]triazin-2-yl)phenyl)methanol] | < 100 |

Results, then the molecule that gave them:

| IC50 [nM] | Compound |
| --- | --- |
| < 100 | COc1cc(-n2cnc(Nc3nc(-c4ccccc4C(N)=O)nn4cccc34)c2)cc(OC)c1OC [Compound 135a, 2-(4-((1-(3,4,5-trimethoxyphenyl)-1H-imidazol-4-yl)amino)pyrrolo[2,1-f][1,2,4]triazin-2-yl)benzamide] |
| < 100 | COc1cc(-n2cnc(Nc3nc(-c4cccc(C(N)=O)c4)nn4cccc34)c2)cc(OC)c1OC [Compound 136a, 3-(4-((1-(3,4,5-trimethoxyphenyl)-1H-imidazol-4-yl)amino)pyrrolo[2,1-f][1,2,4]triazin-2-yl)benzamide] |
| < 100 | COc1cc(-n2cnc(Nc3nc(-c4ccccc4CO)nn4cccc34)c2)cc(OC)c1OC [Compound 137a, (2-(4-((1-(3,4,5-trimethoxyphenyl)-1H-imidazol-4-yl)amino)pyrrolo[2,1-f][1,2,4]triazin-2-yl)phenyl)methanol] |
| < 100 | COc1cc(-n2cnc(Nc3nc(N4CCC[C@H]4CO)c4sccc4n3)c2)cc(OC)c1OC [Compound 138b, (S)-(1-(2-((1-(3,4,5-trimethoxyphenyl)-1H-imidazol-4-yl)amino)thieno[3,2-d]pyrimidin-4-yl)pyrrolidin-2-yl)methanol] |
| 100 to 1000 | COc1cc(-n2cnc(Nc3nc(N4CCC[C@H]4C(N)=O)c4sccc4n3)c2)cc(OC)c1OC [Compound 139b, (S)-1-(2-((1-(3,4,5-trimethoxyphenyl)-1H-imidazol-4-yl)amino)thieno[3,2-d]pyrimidin-4-yl)pyrrolidine-2-carboxamide] |
| < 100 | COc1cc(-n2cnc(Nc3nc(N4CCC[C@H]4CO)nc4cccnc34)c2)cc(OC)c1OC [Compound 140c, (S)-(1-(4-((1-(3,4,5-trimethoxyphenyl)-1H-imidazol-4-yl)amino)pyrido[3,2-d]pyrimidin-2-yl)pyrrolidin-2-yl)methanol] |
| < 100 | COc1cc(-n2cnc(Nc3nc(N4CCC[C@H]4CO)nc4c3ccn4S(=O)(=O)c3ccc(C)cc3)c2)cc(OC)c1OC [Compound 141c, (S)-(1-(7-tosyl-4-((1-(3,4,5-trimethoxyphenyl)-1H-imidazol-4-yl)amino)-7H-pyrrolo[2,3-d]pyrimidin-2-yl)pyrrolidin-2-yl)methanol] |
| < 100 | COc1cc(-n2cnc(Nc3nc(N4CCC[C@H]4CO)nc4[nH]ccc34)c2)cc(OC)c1OC [Compound 141d, (S)-(1-(4-((1-(3,4,5-trimethoxyphenyl)-1H-imidazol-4-yl)amino)-7H-pyrrolo[2,3-d]pyrimidin-2-yl)pyrrolidin-2-yl)methanol] |
| < 100 | COc1cc(-n2cnc(Nc3nc(N4CCC[C@H]4C(N)=O)nc4c3ccn4S(=O)(=O)c3ccc(C)cc3)c2)cc(OC)c1OC [Compound 142a, (S)-1-(7-tosyl-4-((1-(3,4,5-trimethoxyphenyl)-1H-imidazol-4-yl)amino)-7H-pyrrolo[2,3-d]pyrimidin-2-yl)pyrrolidine-2-carboxamide] |
| < 100 | COc1cc(-n2cnc(Nc3nc(N4CCC[C@H]4C(N)=O)nc4[nH]ccc34)c2)cc(OC)c1OC [Compound 142b, (S)-1-(4-((1-(3,4,5-trimethoxyphenyl)-1H-imidazol-4-yl)amino)-7H-pyrrolo[2,3-d]pyrimidin-2-yl)pyrrolidine-2-carboxamide] |
| < 100 | COc1cc(-n2cnc(Nc3nc(N4CCC[C@H]4C(N)=O)nc4c(OC(C)C)cccc34)c2)cc(OC)c1OC [Compound 143h, (S)-1-(8-isopropoxy-4-((1-(3,4,5-trimethoxyphenyl)-1H-imidazol-4-yl)amino)quinazolin-2-yl)pyrrolidine-2-carboxamide] |
